Results from patent US12005033B2, “Compositions comprising mixtures of semifluorinated alkanes” (Novaliq GmbH, priority 2012, dated 2024).

experiment: Liquid droplet spread area on a glass surface; format: physicochemical; conditions: 2 minutes after application of 50 μL of liquid to a glass surface

Liquid covered surface area [cm^2] | SMILES
7.54 ± 0.33 | CCCCCC(F)(F)C(F)(F)C(F)(F)C(F)(F)F [F4H5, F(CF2)4(CH2)5H]
5.20 ± 0.18 | CCCCCCCCC [Nonane, reference compound]
1.45 ± 0.02 | FC1(F)C(F)(F)C(F)(F)C2(F)C(F)(F)C(F)(F)C(F)(F)C(F)(F)C2(F)C1(F)F (stereo not shown) [Perfluorodecalin, reference compound]

SMILES | Liquid covered surface area [cm^2]
CCCCCCCCC(F)(F)C(F)(F)C(F)(F)C(F)(F)C(F)(F)C(F)(F)F [F6H8, F(CF2)6(CH2)8H] | 12.89 ± 0.94
